Measured values published in ChEMBL document CHEMBL3621068, “Synthesis and biological evaluation of a new class of quinazolinoneazoles as potential antimicrobial agents and their interactions with calf thymus DNA and human serum albumin” (Medchemcomm, 2015).

Key:
Assay type in all cases: functional
Candida albicans = test: Antifungal activity against Candida albicans ATCC 10231 after 24 hrs by micro broth dilution assay; settings: ATCC 10231, 24 h
Staphylococcus aureus [1] = test: Antibacterial activity against methicillin-resistant Staphylococcus aureus N315 after 24 hrs by micro broth dilution assay; settings: N315, 24 h
Candida = test: Antifungal activity against Candida mycoderma ATCC 9888 after 24 hrs by micro broth dilution assay; settings: ATCC 9888, 24 h
Aspergillus flavus = test: Antifungal activity against Aspergillus flavus ATCC 204304 after 24 hrs by micro broth dilution assay; settings: ATCC 204304, 24 h
Saccharomyces cerevisiae = test: Antifungal activity against Beer yeast ATCC 9763 after 24 hrs by micro broth dilution assay; settings: ATCC 9763, 24 h
Staphylococcus aureus [2] = test: Antibacterial activity against Staphylococcus aureus ATCC 25923 after 24 hrs by micro broth dilution assay; settings: ATCC 25923, 24 h
Escherichia coli = test: Antibacterial activity against Escherichia coli DH52 after 24 hrs by micro broth dilution assay; settings: DH52, 24 h
Bacillus spizizenii = test: Antibacterial activity against Bacillus subtilis ATCC 6633 after 24 hrs by micro broth dilution assay; settings: ATCC 6633, 24 h
Micrococcus luteus = test: Antibacterial activity against Micrococcus luteus ATCC 4698 after 24 hrs by micro broth dilution assay; settings: ATCC 4698, 24 h
Bacillus sp. = test: Antibacterial activity against Bacillus proteus ATCC 13315 after 24 hrs by micro broth dilution assay; settings: Bacillus sp. (in: firmicutes), ATCC 13315, 24 h
Cyberlindnera jadinii = test: Antifungal activity against Candida utilis ATCC 9950 after 24 hrs by micro broth dilution assay; settings: Williopsis jadinii, ATCC 9950, 24 h
Pseudomonas aeruginosa = test: Antibacterial activity against Pseudomonas aeruginosa ATCC 27853 a after 24 hrs by micro broth dilution assay; settings: ATCC 27853, 24 h
[3] = Antibacterial activity against Eberthella typhosa ATCC 14028 after 24 hrs by micro broth dilution assay; settings: ATCC 14028, 24 h

Measured: MIC

O=c1c2ccc(Cl)cc2ncn1CCCCn1cnc([N+](=O)[O-])c1
180 µM: Staphylococcus aureus [1]
370 µM: Staphylococcus aureus [2] | Bacillus sp. | Cyberlindnera jadinii | [3]
90 µM: Candida albicans | Saccharomyces cerevisiae
50 µM: Bacillus spizizenii | Micrococcus luteus
740 µM: all other assays above

O=c1c2ccc(F)cc2ncn1CCCCCCCCCCBr
1340 µM: Aspergillus flavus | Escherichia coli | Bacillus spizizenii
330 µM: Staphylococcus aureus [1] | Bacillus sp. | Cyberlindnera jadinii
670 µM: Candida albicans | Saccharomyces cerevisiae | Micrococcus luteus
> 1340 µM: all other assays above

Cc1ncc([N+](=O)[O-])n1CCn1cnc2cc(Cl)ccc2c1=O
> 1530 µM: Pseudomonas aeruginosa
20 µM: Aspergillus flavus | [3]
100 µM: Staphylococcus aureus [2] | Escherichia coli | Micrococcus luteus
50 µM: all other assays above

O=c1c2ccc(F)cc2ncn1CCCCBr
1710 µM: Aspergillus flavus | Escherichia coli | Bacillus spizizenii
430 µM: Staphylococcus aureus [1] | Cyberlindnera jadinii
860 µM: Candida albicans | Saccharomyces cerevisiae | Micrococcus luteus | Bacillus sp.
> 1710 µM: all other assays above

Cc1ncc([N+](=O)[O-])n1CCCCCCCCCCn1cnc2cc(F)ccc2c1=O
40 µM: Candida albicans | Aspergillus flavus | Micrococcus luteus
> 1190 µM: Pseudomonas aeruginosa
20 µM: all other assays above

O=c1c2ccc(F)cc2ncn1CCn1cncn1
490 µM: Staphylococcus aureus [1] | Candida | Saccharomyces cerevisiae | Bacillus spizizenii
250 µM: Escherichia coli
30 µM: Micrococcus luteus | Pseudomonas aeruginosa
990 µM: all other assays above

OC(Cn1cncn1)(Cn1cncn1)c1ccc(F)cc1F [FLUCONAZOLE]
50 µM: Saccharomyces cerevisiae
< 10 µM: Candida albicans
840 µM: Aspergillus flavus
30 µM: Cyberlindnera jadinii
10 µM: Candida
> 1670 µM: all other assays above

O=c1c2ccc(Cl)cc2ncn1CCCCCBr
390 µM: Micrococcus luteus | Bacillus sp. | Cyberlindnera jadinii
780 µM: Staphylococcus aureus [1] | Saccharomyces cerevisiae
1550 µM: Escherichia coli | Bacillus spizizenii
> 1550 µM: all other assays above

O=c1c2ccc(Cl)cc2ncn1CCCCCCCCCCn1cnc([N+](=O)[O-])c1
300 µM: Staphylococcus aureus [2] | [3]
150 µM: Staphylococcus aureus [1] | Aspergillus flavus | Escherichia coli | Cyberlindnera jadinii
70 µM: Saccharomyces cerevisiae | Bacillus sp. | Pseudomonas aeruginosa
40 µM: all other assays above

O=c1c2ccc(F)cc2ncn1CCCCn1cnc([N+](=O)[O-])c1
100 µM: Candida albicans | Saccharomyces cerevisiae
50 µM: Bacillus spizizenii | Micrococcus luteus
770 µM: Candida | Aspergillus flavus | Escherichia coli | Pseudomonas aeruginosa
190 µM: Staphylococcus aureus [1]
390 µM: all other assays above

Cc1ncc([N+](=O)[O-])n1CCCCCn1cnc2cc(F)ccc2c1=O
40 µM: Candida albicans | Candida | Staphylococcus aureus [2] | Escherichia coli
> 1420 µM: Pseudomonas aeruginosa
20 µM: all other assays above

O=c1c2ccc(F)cc2ncn1CCn1ccnc1
1980 µM: Escherichia coli | Bacillus sp.
500 µM: Aspergillus flavus | Saccharomyces cerevisiae | Micrococcus luteus
990 µM: Candida albicans | Staphylococcus aureus [1] | Cyberlindnera jadinii | Pseudomonas aeruginosa
> 1980 µM: all other assays above

O=c1c2ccc(Cl)cc2ncn1CCCCCCn1cnc([N+](=O)[O-])c1
340 µM: Staphylococcus aureus [2] | Cyberlindnera jadinii | Pseudomonas aeruginosa | [3]
90 µM: Saccharomyces cerevisiae | Bacillus sp.
170 µM: Staphylococcus aureus [1] | Aspergillus flavus | Escherichia coli
40 µM: all other assays above
